Patent US5688767A, “Treatment of endotoxin-associated disorders with cationic peptides” (priority 1996, dated 1997)
Converted amounts (≈) assume the structure as drawn. “And” between values parts separate entries of the source, which are not always exact repeats. Equal values may be shown once.

How the values were obtained:
S. typhimurium = test: microbe, parasite or virus in culture; type: cell-based, Salmonella typhimurium
Protocol: The minimum inhibitory concentrations of (MIC) of CEME, CEMA and melittin were determined for a number of different bacteria (Table 2). Briefly, cells were grown overnight at 37° C. in LB-S (Luria broth without any salt supplement) and diluted one in 10,000 in the same medium to give concentrations of about 10^4 to 10^5 CFU/ml. The broth dilutions were set up in a 96 well microtiter plate by putting 200 μl of LB-S containing the initial concentration of antibiotic or compound in column 1 and 100 μl of the same medium in columns 2-12. The compounds were diluted by taking 100 μl of broth from column 1 and mixing it with column 2, resulting in a one in two dilution. This was continued to column 10. Finally, 10 μl of bacteria were pipetted into columns 1-11, and the plates incubated overnight at 37° C. The next day the plates were scored for growth in the wells, and the MIC determined.
Bacteria included the Bort strain of E. coli (Bortolussi, et al., Inf. Immun., 25:293, 1979) that was originally derived from a case of neonatal meningitis, and which is therefore considered a relevant pathogenic strain to study, and the 0111:B4 strain of E. coli (kindly provided by Dr. D. Morrison) which is a standard source of endotoxin. (Kelly, et al., Inf. Immun., 59:4491, 1991). In addition, P. aeruginosa PA01 strain H103, P. aeruginosa M2, P. aeruginosa K799, Eschericha coli UB 1005, Enterobacter cloacae 218S, Salmonella typhimurium MS7953s, Klebsiella pneumoniae ATCC 13883, Xanthomonas maltophilia ATCC 13637, and Acinetobacter calcoacetious 8193 were employed. LPS was obtained from E. coli Bort by the technique of Westphal and Jann, (Westphal, et al., Acad. Press, Inc. NY., 5:83) and from P. aeruginosa H103 by the method of Darveau and Hancock, (Darveau, et al., J. Bacteriol, 155:831, […]). E. coli 0111:B4 LPS was purchased from Sigma.

[1] = tested on: P. aeruginosa H309 or E. cloacae 218R1; test: Lysozyme lysis assay (outer membrane permeabilization); type: cell-based, Pseudomonas aeruginosa; Enterobacter cloacae; conditions: 50 μg/ml lysozyme, varying concentrations of compound
Protocol: Membrane permeabilization by polycationic compounds was measured in two different assays. The first assay measured membrane disruption by the ability of lysozyme to reach the periplasm and cause cell lysis. […] The uptake of lysozyme into whole cells due to membrane permeabilization by various compounds was previously described in Hancock, et al., Antimicrobial Agents and Chemo., 19:777, 1981. Overnight cultures of P. aeruginosa H309 or E. cloacae 218R1 grown in LB-S were diluted 1 in 50 in fresh medium and grown to an OD600 =0.5-0.6. The cells were harvested in a Silencer H-103N clinical centrifuge at 1800 g for 10 min, washed once with one volume of assay buffer (5 mM HEPES pH 7.2, 5 mM KCN), and resuspended in the same buffer to an OD600 of 0.5. Assays consisted of 600 μl of cells with 50 μg/ml of chicken egg white lysozyme and varying concentrations of cationic compounds. Cell lysis was measured as a decrease in the OD600 in a Perkin-Elmer dual beam spectrophotometer. Parallel experiments performed without lysozyme enabled the measurement of the lytic activity of the compounds themselves. To test whether or not permeability to lysozyme could be inhibited by divalent cations, various concentrations of MgCl2 were added to the assay after the addition of lysozyme and before the addition of the test compound.

[2] = tested on: TNF induced by viable bacteria in RAW 264.7 cells; test: TNF induction in RAW 264.7 cells by intact bacteria / secreted LPS-protein complexes; type: cell-based, murine; conditions: for Unit of TNF induced / Unit of TNF induced (% of control): 20 μg of peptide
Protocol: After an overnight incubation, the media was aspirated from all the wells. 100 μl of Lipopolysaccharide (LPS) was added at 100 ng/100 μl. CEME or CEMA was added at the desired concentration/100 μl to specified wells. […] The plates were then incubated for six hours at 37° C., 5% CO2. The supernatant was then removed from the wells and stored overnight at 4° C. For those wells in which whole bacteria were added directly to the wells, the supernatant was centrifuged in 0.2 μm filter eppendorf tubes for 5 minutes.
In intact cell induction experiments, 10^6 E. coli Bort cells induced 11,967-14,805 Units of TNF per ml in RAW cells.
To examine effects on whole bacterium induction of TNF, bacteria, grown in Luria broth overnight (approximately 1×10^8 /ml) and diluted to […] organisms per ml, and RAW 264.7 cells were each added to separate compartments of a transwell diffusion chamber, which contained a 0.2 μm membrane filter separating the two compartments. Peptides were added, when appropriate, to the bacterium-containing compartment at a final concentration of 20 μg/ml. TNF levels were measured after 6 hours of incubation at 37° C. in 5% CO2. All assays were performed three times with similar results.
TNF was measured in cell culture supernatants and mouse serum on the basis of cytoxicity for L929 fibroblast cell. […] TNF activity was expressed in units as the reciprocal of the dilution of TNF that caused 50% cytotoxicity of L929 cells, as computed using the ELISA+program (Meddata, Inc., New York, N.Y.). In our hands one unit of TNF corresponded to 62.5 pg/ml of recombinant murine TNF (Genzyme Corp.).
In man and animal infections, LPS is probably not released as a purified molecule, but rather in association with other bacterial cell components. To mimic this situation, a model system was employed in which the LPS-protein complexes that are naturally released from bacteria were used as a stimulus to induce TNF production in RAW 264.7 cells. Viable cells of E. coli Bort and 0111:B4 or P. aeruginosa H103 were incubated in a transwell filter unit in which a 0.2 μm membrane filter separated the intact bacteria from the compartment containing the RAW 264.7 cells. […] Addition of 20 μg/ml of peptide to 10^5, 10^6, and 10^7 viable to E. coli 0111:B4 (Table 11) and Bort cells reduced the TNF levels by 90%-96%.

RAW 264.7 cells = test: RAW cell viability by Trypan blue exclusion; type: cell-based, murine; conditions: up to 50 μg
[3] = Lethality of peptide alone in mice; type: in vivo
[4] = 10^5 viable E. coli 0111:B4 cells
[5] = 10^6 viable E. coli 0111:B4 cells
[6] = 10^7 viable E. coli 0111:B4 cells

CC[C@H](C)[C@H](NC(=O)CNC(=O)[C@@H](NC(=O)[C@H](CCCCN)NC(=O)[C@H](CCCCN)NC(=O)[C@H](Cc1ccccc1)NC(=O)[C@H](CC(C)C)NC(=O)[C@H](CCCCN)NC(=O)[C@H](Cc1c[nH]c2ccccc12)NC(=O)[C@@H](N)CCCCN)[C@@H](C)CC)C(=O)NCC(=O)N[C@@H](C)C(=O)N[C@H](C(=O)N[C@@H](CC(C)C)C(=O)N[C@@H](CCCCN)C(=O)N[C@H](C(=O)N[C@@H](CC(C)C)C(=O)N[C@H](C(=O)N[C@H](C(=O)NCC(=O)N[C@@H](CC(C)C)C(=O)N1CCC[C@H]1C(=O)N[C@@H](C)C(=O)N[C@@H](CC(C)C)C(=O)N[C@@H](CCCCN)C(=O)N[C@@H](CC(C)C)C(=O)N[C@H](C(=O)N[C@@H](CCCCN)C(=O)O)[C@@H](C)O)[C@@H](C)O)[C@@H](C)O)C(C)C)C(C)C [CEMA]
MIC (S. typhimurium; Salmonella typhimurium MS7953s): 4 µg/mL (≈ 1.3 µM) | MIC (S. typhimurium; strain C587, Parent of C590): 5.6 µg/mL (≈ 1.83 µM) | MIC (S. typhimurium; strain C590, Defensin sensitive): 1.4 µg/mL (≈ 0.457 µM) | permeabilization of outer membrane to lysozyme [1]: stronger permeabilizer for lysozyme than polymyxin B | reduction in TNF levels ([2]; 20 μg of CEMA, 10^6 E. coli Bort cells, two independent experiments): 96% and 97% | reduction of TNF induction ([2]; 20 μg/ml CEMA, 10^6 viable P. aeruginosa): 96% | Unit of TNF induced [2, 4]: 552 ± 61 units/ml | Unit of TNF induced (% of control) [2, 4]: 4.5% | Unit of TNF induced [2, 5]: 1892 ± 1370 units/ml | Unit of TNF induced (% of control) [2, 5]: 6.0% | Unit of TNF induced [2, 6]: 4126 ± 3890 units/ml | Unit of TNF induced (% of control) [2, 6]: 8.5% | RAW cell viability (RAW 264.7 cells): no apparent decrease | survival of mice given peptide alone ([3]; 200 μg (8.7 mg/kg) alone): survived | % Mortality ([3]; no LPS, peptide 200 ug): 0% | dead/total ([3]; no LPS, peptide 200 ug): 0/5
